Measurements: patent publication US4906657A, “Bicyclo heptane and bicyclo octane substituted inhibitors of cholesterol synthesis” (Warner-Lambert Company, priority 1988, dated 1990)
pIC50: −log10 of the molar value.

Tested on: biosynthesis of cholesterol (rat liver homogenate)
Assay: CSI screen (inhibition of sterol synthesis; incorporation of 14C-acetate into non-saponifiable lipid by rat liver homogenate)
Format: biochemical
Details: 50% inhibition of sterol synthesis over a one-hour period
Experimental: The ability of compounds of the present invention to inhibit the biosynthesis of cholesterol was measured by a method (designated CSI screen) which utilizes the procedure described by R. E. Dugan, et al, Archiv. Biochem. Biophys., (1972), 152, 21-27. In this method, the level of HMG-CoA enzyme activity in standard laboratory rats is increased by feeding the rats a chow diet containing 5% cholestryramine for four days, after which the rats are sacrificed.
The rat livers are homogenized, and the incorporation of […] into non-saponifiable lipid by the rat liver homogenate is measured. The micromolar concentration of compound required for 50% inhibition of sterol synthesis over a one-hour period is measured, and expressed as an IC50 value.

Row | Structure (SMILES) | pIC50
1 | C=C1CC2(C)CC1C(c1ccccc1)=C2C=CC1CC(O)CC(=O)O1 (centres unmarked) | 6.36
2 | C=C1CC2(C)CC1C(c1ccccc1)=C2/C=C/[C@@H](O)C[C@@H](O)CC(=O)OCC (relative stereo) | 6.36
